# Reference: the supplement of paper PMC10307832
# Legend:
# Test in all cases: relative viability (nuclei count vs DMSO), 5 days (fraction); higher = more cells survive
# [1] = compound: C=C(c1ccc(C(=O)O)cc1)c1cc2c(cc1C)C(C)(C)CCC2(C)C [Bexarotene] + COc1cc2c(Oc3ccc(NC(=O)C4(C(=O)Nc5ccc(F)cc5)CC4)cc3F)ccnc2cc1OCCCN1CCOCC1 [Foretinib] (partner 0.25 µM)
# Method in brief: (§1)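 One day after seeding in 1536-well plates, lung cancer cell lines were dosed by pin tool. Dosing was either single-drug or a fixed anchor-drug dose plus five library-drug doses (not always all listed) in √10 steps. After 5 days, nuclei were stained in one fix-and-stain step and counted on 4× images, and relative viability is the nuclei count of treated wells over that of vehicle wells, given as the median of duplicate plates.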
# [2] = compound: C=C(c1ccc(C(=O)O)cc1)c1cc2c(cc1C)C(C)(C)CCC2(C)C [Bexarotene] + CS(=O)(=O)N1CCN(Cc2cc3nc(-c4cccc5[nH]ncc45)nc(N4CCOCC4)c3s2)CC1 [Pictilisib] (partner 1 µM)
# Method in brief: as §1
# [3] = compound: C=C(c1ccc(C(=O)O)cc1)c1cc2c(cc1C)C(C)(C)CCC2(C)C [Bexarotene] + NC(=O)Nc1cc(-c2cccc(F)c2)sc1C(=O)N[C@H]1CCCNC1 [AZD7762] (partner 0.2 µM)
# Method in brief: as §1
# [4] = compound: C=C(c1ccc(C(=O)O)cc1)c1cc2c(cc1C)C(C)(C)CCC2(C)C [Bexarotene] + O=C(CCCCCCC(=O)Nc1ccccc1)NO [Vorinostat] (partner 1 µM)
# Method in brief: as §1
Cell Line,relative viability ([1]; first compound 0.08 µM),relative viability ([1]; first compound 0.253 µM),relative viability ([1]; first compound 0.8 µM),relative viability ([1]; first compound 2.53 µM),relative viability ([1]; first compound 8 µM),relative viability ([2]; first compound 0.08 µM),relative viability ([2]; first compound 0.253 µM),relative viability ([2]; first compound 0.8 µM),relative viability ([2]; first compound 2.53 µM),relative viability ([2]; first compound 8 µM),relative viability ([3]; first compound 0.08 µM),relative viability ([3]; first compound 0.253 µM),relative viability ([3]; first compound 0.8 µM),relative viability ([3]; first compound 2.53 µM),relative viability ([3]; first compound 8 µM),relative viability ([4]; first compound 0.08 µM),relative viability ([4]; first compound 0.253 µM),relative viability ([4]; first compound 0.8 µM),relative viability ([4]; first compound 2.53 µM),relative viability ([4]; first compound 8 µM)
NCI-H1975,1.11,0.983,1.12,1.04,1.05,0.361,0.347,0.319,0.342,0.386,0.676,0.775,0.672,0.666,0.668,0.884,0.758,0.725,0.754,0.795
NCI-H1437,1.26,1.32,1.22,1.23,1.26,0.572,0.447,0.56,0.601,0.542,1.2,1.14,1.19,1.14,1.15,0.814,1.01,0.886,0.872,0.84
NCI-H1651,0.86,0.98,0.805,0.933,0.84,0.837,0.52,0.723,0.674,0.593,0.544,0.491,0.525,0.454,0.549,0.693,0.604,0.62,0.602,0.608
LCLC-103H,0.753,0.665,0.695,0.814,0.677,0.71,0.642,0.529,0.653,0.631,0.807,0.78,0.64,0.796,0.842,0.891,0.976,0.691,0.771,0.875
NCI-H1666,0.974,0.937,0.85,0.867,0.833,0.256,0.337,0.359,0.58,0.459,1.02,0.839,0.82,0.817,0.895,0.815,0.959,0.829,0.916,0.791
NCI-H1734,0.913,0.799,0.928,0.822,0.769,0.559,0.462,0.4,0.442,0.43,0.552,0.536,0.522,0.488,0.526,0.779,0.834,0.808,0.65,0.657
EPLC-272H,0.666,0.555,0.75,0.588,0.737,0.373,0.308,0.33,0.298,0.352,0.199,0.259,0.517,0.208,0.271,0.398,0.671,0.492,0.681,0.484
BEN,0.802,0.387,0.567,0.318,0.674,0.674,0.576,0.495,0.452,0.571,0.759,0.585,0.613,0.612,0.695,0.685,0.583,0.531,0.531,0.547
